# Experimental data taken from patent publication US9060971B2, “Combination pharmaceutical agents as inhibitors of HCV replication” (Enanta Pharmaceuticals, Inc., priority 2010, dated 2015).
# Tested on: HCV 1b genotype replicon
# Experiment: HCV replicon drug screening assay (quantitative RT-PCR or luciferase), genotype 1b
# Assay type: cell-based
# Conditions: Hepatitis C virus; HCV 1b genotype replicon; quantitative RT-PCR or luciferase assay; read-out: Genotype-1b replicon EC50 Range
# Text: HCV replicon cell lines (kindly provided by R. Bartenschlager) isolated from colonies as described by Lohman et. al. (Lohman et al. (1999) Science 285: 110-113, expressly incorporated by reference in its entirety) and used for all experiments. The HCV replicon has the nucleic acid sequence set forth in EMBL Accession No.: AJ242651, the coding sequence of which is from nucleotides 1801 to 8406.
# The coding sequence of the published HCV replicon was synthesized and subsequently assembled in a modified plasmid pBR322 (Promega, Madison, Wis.) using standard molecular biology techniques. One replicon cell line (“SGR 11-7”) stably expresses HCV replicon RNA which consists of (i) the HCV 5′UTR fused to the first 12 amino acids of the capsid protein, (ii) the neomycin phosphotransferase gene (neo), (iii) the IRES from encephalomyocarditis virus (EMCV), and (iv) HCV NS2 to NS5B genes and the HCV 3′UTR. Another replicon cell line (“Huh-luc/neo-ET”) described by Vrolijk et. al. (Vrolijk et. al. (2003) Journal of Virological Methods 110:201-209, expressly incorporated by reference in its entirety) stably expresses HCV replicon RNA which consists of (i) the HCV 5′UTR fused to the first 12 amino acids of the capsid protein, (ii) the firefly luciferase reporter gene, (iii) the ubiquitin gene, (iv) the neomycin phosphotransferase gene (neo), (v) the IRES from encephalomyocarditis virus (EMCV), and (vi) HCV NS3 to NS5B genes that harbor cell culture adaptive mutations (E1202G, T12801, K1846T) and the HCV 3′UTR.
# These cell lines are maintained at 37° C., 5% CO2, 100% relative humidity in DMEM (Cat#11965-084, Invitrogen), with 10% fetal calf serum (“FCS”, Invitrogen), 1% non-essential amino acids (Invitrogen), 1% of Glutamax (Invitrogen), 1% of 100× penicillin/streptomycin (Cat#15140-122, Invitrogen) and Geneticin (Cat#10131-027, Invitrogen) at 0.75 mg/ml or 0.5 mg/ml for 11-7 and Huh-luc/neo-ET cells, respectively.
# EC50 values of single agent compounds and combinations were determined by HCV RNA detection using quantitative RT-PCR, according to the manufacturer's instructions, with a TAQMAN® One-Step RT-PCR Master Mix Reagents Kit (Cat#AB 4309169, Applied Biosystems) on an ABI Model 7500 thermocycler. The TaqMan primers to use for detecting and quantifying HCV RNA are 5′-GCTGCGGCCTGTCGAGCT-3′ (SEQ ID NO: 1), 5′-CAAGGTCGTCTCCGCATAC-3′ (SEQ ID NO: 2) and the probe 5′-FAM-[…]-BHQ-3′ (SEQ ID NO: 3) obtained from Integrated DNA Technologies. HCV RNA is normalized to GAPDH RNA levels in drug-treated cells, which is detected and quantified using the Human GAPDH Endogenous Control Mix (Applied Biosystems, AB 4310884E). Total cellular RNA is purified from 96-well plates using the RNAqueous 96 kit (Ambion, Cat#AM1812). Chemical agent cytotoxicity was evaluated using an MTS assay according to the manufacturer's directions (Promega).
# The compounds described herein can be effective against the HCV 1b genotype. It should also be understood that the compounds can inhibit multiple genotypes of HCV. In one embodiment, compounds of Formula (I) are active against the 1a, 1b, 2a, 2b, 3a, 4a, and 5a genotypes. […] The EC50 ranges were classified into the following groups: A>10 nM; B 1-10 nM; C<1 nM. The potential cytotoxicities of each agent were analyzed in parallel by MTS assay and are greater than 3 uM for all agents.
row,SMILES,EC50 [nM]
1,CC(C)[C@H](Nc1ncccn1)C(=O)N1CCC[C@H]1c1nc2cc(-c3ccc(-c4ccc5[nH]c([C@@H]6CCCN6C(=O)[C@@H](Nc6ncccn6)C(C)C)nc5c4)cc3)ccc2[nH]1 [Compound 19],< 1
2,COC(=O)N[C@H](C(=O)N1CCC[C@H]1c1nc2cc(-c3ccc4cc(-c5ccc6[nH]c([C@@H]7CCCN7C(=O)[C@@H](NC(=O)OC)C(C)C)nc6c5)ccc4c3)ccc2[nH]1)C(C)C [Compound 20],< 1
3,COC(=O)N[C@H](C(=O)N1CCC[C@H]1c1nc2cc(-c3ccc4nc(-c5ccc6[nH]c([C@@H]7CCCN7C(=O)[C@@H](NC(=O)OC)C(C)C)nc6c5)ncc4c3)ccc2[nH]1)C(C)C [Compound 21],< 1
4,O=C(Cc1ccccn1)N1CCC[C@H]1c1nc2cc(-c3ccc(-c4ccc5[nH]c([C@@H]6CCCN6C(=O)Cc6ccccn6)nc5c4)cc3)ccc2[nH]1 [Compound 22],< 1
5,COCCOC(=O)N[C@H](C(=O)N1CCC[C@H]1c1nc2cc(-c3ccc(-c4ccc5[nH]c([C@@H]6CCCN6C(=O)[C@@H](NC(=O)OCCOC)C(C)C)nc5c4)cc3)ccc2[nH]1)C(C)C [Compound 23],> 10
6,COC(=O)N[C@H](C(=O)N1CCC[C@H]1c1nc2cc(-c3ccc(-c4ccc5[nH]c([C@@H]6CCCN6C(=O)[C@@H](NC(=O)OC)C6CCCC6)nc5c4)cc3)ccc2[nH]1)C1CCCC1 [Compound 24],< 1
7,COC(=O)N[C@@H](CC(C)C)C(=O)N1CCC[C@H]1c1nc2cc(-c3ccc(-c4ccc5[nH]c([C@@H]6CCCN6C(=O)[C@H](CC(C)C)NC(=O)OC)nc5c4)cc3)ccc2[nH]1 [Compound 25],< 1
8,CC[C@H](C)[C@H](NC(=O)OC)C(=O)N1CCC[C@H]1c1nc2cc(-c3ccc(-c4ccc5[nH]c([C@@H]6CCCN6C(=O)[C@@H](NC(=O)OC)[C@@H](C)CC)nc5c4)cc3)ccc2[nH]1 [Compound 26],< 1
9,COC(=O)N[C@@H](C(=O)N1CCC[C@H]1c1nc2cc(CC=CCc3ccc4[nH]c([C@@H]5CCCN5C(=O)[C@H](NC(=O)OC)c5ccccc5)nc4c3)ccc2[nH]1)c1ccccc1 [Compound 28],< 1
10,COC(=O)N[C@@H](C(=O)N1CCC[C@H]1c1nc2cc(CCCCc3ccc4[nH]c([C@@H]5CCCN5C(=O)[C@H](NC(=O)OC)c5ccccc5)nc4c3)ccc2[nH]1)c1ccccc1 [Compound 29],< 1
11,COC(=O)N[C@@H](C(=O)N1CCC[C@H]1c1nc2cc(CC=Cc3ccc4nc([C@@H]5CCCN5C(=O)[C@H](NC(=O)OC)c5ccccc5)[nH]c4c3)ccc2[nH]1)c1ccccc1 [Compound 30],< 1
12,COC(=O)N[C@@H](C(=O)N1CCC[C@H]1c1nc2cc(CCCc3ccc4nc([C@@H]5CCCN5C(=O)[C@H](NC(=O)OC)c5ccccc5)[nH]c4c3)ccc2[nH]1)c1ccccc1 [Compound 31],< 1
13,COC(=O)N[C@@H](C(=O)N1CCC[C@H]1c1nc2cc(NC(=O)Nc3ccc4nc([C@@H]5CCCN5C(=O)[C@H](NC(=O)OC)c5ccccc5)[nH]c4c3)ccc2[nH]1)c1ccccc1 [Compound 32],> 10
14,COC(=O)N[C@H](C(=O)N1CCC[C@H]1c1nc2cc(C#Cc3ccc(-c4ccc5[nH]c([C@@H]6CCCN6C(=O)[C@@H](NC(=O)OC)C(C)C)nc5c4)cc3)ccc2[nH]1)C(C)C [Compound 33],< 1
15,COC(=O)N[C@H](C(=O)N1CCC[C@H]1c1nc2cc(CCc3ccc(-c4ccc5[nH]c([C@@H]6CCCN6C(=O)[C@@H](NC(=O)OC)C(C)C)nc5c4)cc3)ccc2[nH]1)C(C)C [Compound 34],< 1
16,COC(=O)N[C@@H](C(=O)N1CCC[C@H]1c1ncc(-c2ccc(-c3ccc4[nH]c([C@@H]5CCCN5C(=O)[C@H](NC(=O)OC)c5ccccc5)nc4c3)cc2)[nH]1)c1ccccc1 [Compound 35],< 1

row,SMILES,EC50 [nM]
1,COC(=O)N[C@@H](C(=O)N1CCC[C@H]1c1nc(-c2ccc(C#Cc3ccc4[nH]c([C@@H]5CCCN5C(=O)[C@H](NC(=O)OC)c5ccccc5)nc4c3)cc2)c[nH]1)c1ccccc1 [Compound 36],< 1
2,COC(=O)N[C@@H](C(=O)N1CCC[C@H]1c1ncc(-c2ccc(CCc3ccc4nc([C@@H]5CCCN5C(=O)[C@H](NC(=O)OC)c5ccccc5)[nH]c4c3)cc2)[nH]1)c1ccccc1 [Compound 37],< 1
3,COC(=O)N[C@@H](C(=O)N1CCC[C@H]1c1nc(-c2ccc(/C=C/c3ccc4[nH]c([C@@H]5CCCN5C(=O)[C@H](NC(=O)OC)c5ccccc5)nc4c3)cc2)c[nH]1)c1ccccc1 [Compound 38],< 1
4,COC(=O)N[C@@H](C(=O)N1CCC[C@H]1c1nc(-c2ccc(C#Cc3ccc4[nH]c([C@@H]5CCCN5C(=O)[C@H](NC(=O)OC)c5ccccc5)nc4c3)cc2)n[nH]1)c1ccccc1 [Compound 39],< 1
5,COC(=O)N[C@@H](C(=O)N1CCC[C@H]1c1nc(-c2ccc(CCc3ccc4[nH]c([C@@H]5CCCN5C(=O)[C@H](NC(=O)OC)c5ccccc5)nc4c3)cc2)n[nH]1)c1ccccc1 [Compound 40],< 1
6,COC(=O)N[C@@H](C(=O)N1CCC[C@H]1c1cc(-c2ccc(C#Cc3ccc4[nH]c([C@@H]5CCCN5C(=O)[C@H](NC(=O)OC)c5ccccc5)nc4c3)cc2)n[nH]1)c1ccccc1 [Compound 41],< 1
7,COC(=O)N[C@@H](C(=O)N1CCC[C@H]1c1cc(-c2ccc(CCc3ccc4[nH]c([C@@H]5CCCN5C(=O)[C@H](NC(=O)OC)c5ccccc5)nc4c3)cc2)n[nH]1)c1ccccc1 [Compound 42],< 1
8,COC(=O)N[C@H](C(=O)N1CCC[C@H]1c1ncc(-c2ccc(CCCc3ccc4[nH]c([C@@H]5CCCN5C(=O)[C@@H](NC(=O)OC)C(C)C)nc4c3)cc2)[nH]1)C(C)C [Compound 43],< 1
9,COC(=O)N[C@H](C(=O)N1CCC[C@H]1c1nc(-c2ccc(OCc3ccc4[nH]c([C@@H]5CCCN5C(=O)[C@@H](NC(=O)OC)C(C)C)nc4c3)cc2)c[nH]1)C(C)C [Compound 44],< 1
10,COC(=O)N[C@H](C(=O)N1CCC[C@H]1c1nc(-c2ccc(/C=C/c3ccc4[nH]c([C@@H]5CCCN5C(=O)[C@@H](NC(=O)OC)C(C)C)nc4c3)s2)c[nH]1)C(C)C [Compound 45],< 1
11,COC(=O)N[C@H](C(=O)N1CCC[C@H]1c1nc(-c2ccc(CCc3ccc4[nH]c([C@@H]5CCCN5C(=O)[C@@H](NC(=O)OC)C(C)C)nc4c3)s2)c[nH]1)C(C)C [Compound 46],< 1
12,COC(=O)N[C@H](C(=O)N1CCC[C@H]1c1nc(-c2ccc(CCCc3ccc4nc([C@@H]5CCCN5C(=O)[C@@H](NC(=O)OC)C(C)C)[nH]c4c3)s2)c[nH]1)C(C)C [Compound 47],< 1
13,COC(=O)N[C@H](C(=O)N1CCC[C@H]1c1nc(-c2ccc3cc(-c4ccc5[nH]c([C@@H]6CCCN6C(=O)[C@@H](NC(=O)OC)C(C)C)nc5c4)ccc3c2)c[nH]1)C(C)C [Compound 48],< 1
14,COC(=O)N[C@H](C(=O)N1CCC[C@H]1c1nc(-c2ccc3cc(-c4ccc5[nH]c([C@@H]6CCCN6C(=O)[C@@H](NC(=O)OC)[C@@H](C)OC)nc5c4)ccc3c2)c[nH]1)[C@@H](C)OC [Compound 49],< 1
15,COC(=O)N[C@H](C(=O)N1CCC[C@H]1c1nc(-c2ccc3cc(-c4ccc5[nH]c([C@@H]6CCCN6C(=O)[C@H](NC(=O)OC)c6ccccc6)nc5c4)ccc3c2)c[nH]1)[C@@H](C)OC [Compound 51],< 1
16,COC(=O)N[C@H](C(=O)N1CCC[C@H]1c1nc2cc(-c3ccc4cc(-c5c[nH]c([C@@H]6CCCN6C(=O)[C@@H](NC(=O)OC)[C@@H](C)OC)n5)ccc4c3)ccc2[nH]1)C(C)C [Compound 52],< 1
